Data reported in US20140315972A1, “RS)-2-(2-oxo-4-phenylpyrrolidin-1-yl)acetamide compound having modulatory activity with a commensurate effect, pharmaceutical substance (variants) and its application, composition (variants) thereof” (priority 2011, published 2014).
Several values for one entry are separate records, joined by “and”; a condition that tells them apart may be missing. Equal entries are not always repeated. Marks after values point to notes of the source that are not given here.

Experiments:
[1] = tested on: mice; details: animals; prior art Phenotropil products; cited from earlier work
[2] = tested on: rats; experiment: Hypobaric hypoxia in 7-day-old rats; format: in vivo
[3] = tested on: rats; experiment: Hemorrhagic stroke (intracerebral post-traumatic hematoma), McGrow scale; format: in vivo
Text: The stroke condition was simulated in male rats (270-320 g) at a local cerebral hemorrhage, as a hemorrhagic stroke (intracerebral post-traumatic hematoma) by the method of A. N. Makarenko et al (1990) and at cerebral ischemia with distal occlusion of the middle cerebral artery (Chen S. T., Hsu C. Y., Hogan E. L., Maricq H., Balentine J. D. A model of focal ischemic stroke in the rat reproducible extensive cortical infarction//Stroke.—1989, V. 17, No 4, p. 738-743) as an ischemic stroke. Phenotropil was injected intraperitoneally at hemorrhagic stroke at 100 mg/kg immediately after surgery, and one hour before and two hours after the surgery (at doses of 100, 200 and 300 mg/kg) at ischemic stroke. Control animals were treated adequately with distilled water.

[4] = tested on: rats; experiment: Formalin induced edema, topical application; format: in vivo
Procedure: To identify and assess the anti-inflammatory action of Phenotropil, a standard technique was used; the carrageenan-induced paw edema in rats (Winter C. et al, 1962). Phenotropil at a dose of 100 mg/kg was administered intragastrically 60 minutes before carrageenan. Control animals received distilled water. Additionally, the topical application by method of formalin induced edema was investigated (subplantar administration of 0.1 ml of 2% formalin solution). Phenotropil for topical use was prepared (1:1) on the standard ointment base carrier at 100 mg/kg of body weight for each animal (150-220 g). The preparation was rubbed in the leg and a gauze patch was applied for 2 hours and 1 hour before the induction of inflammation.

[5] = tested on: mice; experiment: Conflict situation (tranquilizing effect); format: in vivo; details: 300 mg/kg
Procedure: The tranquilizing effect of Phenotropil (300 mg/kg) was studied by the method of conflict situation and conflict of two reflexes (Vogel, 1971; Sanger et al., 1991; File, 1995; Molodavkin, Voronina, 1995), associated in this case with the desire to satisfy the motivation (drinking) and application of punishment (electric shock, received after each attempt to satisfy the motivation). In the created conflict situation, the animal is experiencing a strong negative stress. Tranquilizers reduce the level of anxiety and psychoemotional stress.

[6] = tested on: glutamate NMDA receptors (hippocampus); experiment: Receptor binding ex vivo on rat brain membrane preparations
Procedure: (§1) Studying the mechanisms of action of the preventive and curative effect of Phenotropil (100 mg/kg) with single and subchronic administration (for 7 days) in terms of receptor binding to dopamine (D1, D2, D3 in the striatum), serotonin (5-HT2—frontal cortex) glutamate (NMDA in the hippocampus), the GABAA benzodiazepine (BDZ—cortex) and acetylcholine (nACh—cortex) receptors was performed on membrane preparations isolated from various competent rat brain structures. The methods are well known and described. Baseline studies in normal state and during the anticholinergic scopolamine induced CRPA amnesia served as the comparison groups (Table 7.4 and 7.5).

[7] = tested on: GABAA benzodiazepine (BDZ) receptors (cortex); experiment: as above; details: 100 mg/kg single dose during scopolamine amnesia
Procedure: as §1

[8] = tested on: acetylcholine nACh receptors (cortex); experiment: as above
Procedure: as §1

[9] = tested on: serotonin 5-HT2 receptors (frontal cortex); experiment: as above
Procedure: as §1

[10] = tested on: rats; experiment: Anti-ulcerogenic action under Ds-conditions; format: in vivo; details: listed as Phenotropil
[11] = tested on: patients; experiment: Amenorrhea in patients on neuroleptic therapy; format: in vivo, human; details: tablets 100 or 200 mg per day, 3 months
Procedure: Investigation of the effect of Phenotropil in amenorrhea and functional dysmenorrhea was conducted on groups of patients aged 14-27 years. The first group (20-27 years) diagnosed with schizophrenia, was on the maintenance neuroleptic therapy and had menstrual cycle irregularities in the form of amenorrhea (for more than 6 months). Of those, 4 had amenorrhea of not established nature, observed also prior to the pronounced primary manifestation of mental disorder, 6 patients had amenorrhea that developed during treatment with neuroleptics. Phenotropil, tablets was administered in doses of 100 mg and 200 mg per day as part of a complex antipsychotic therapy as a corrector of psychogenic side effects of neuroleptics. The dose was selected based on the individual and clinical features of the patients. The duration of Phenotropil therapy was 3 months. Two groups (14-18 years) with functional dysmenorrhea and manifestations of pronounced spastic symptoms were studied. Duration of the Phenotropil monotherapy (50 and 100 mg per day) was one month followed by administration of the drug at one-week courses as a preventive agent. Patients with functional dysmenorrhea were investigated for cAMP level in comparison with the norm control group. The cAMP level was determined using the standard kits, by the method based on the competition with the labeled cyclic 3′,5-adenosine monophosphate in the level of binding with […].

[12] = rats, hemorrhagic stroke, 100 mg/kg i.p., 1 day after surgery
[13] = 100 mg/kg after scopolamine-induced CRPA amnesia
[14] = NMDA hippocampus, 100 mg/kg single dose during scopolamine amnesia
[15] = nACh cortex, 100 mg/kg single dose during scopolamine amnesia
[16] = 5-HT2 frontal cortex, 100 mg/kg single dose during scopolamine amnesia

SMILES: NC(=O)CN1CC(c2ccccc2)CC1=O (racemic) [Compound 1, (RS)-2-(2-oxo-4-phenylpyrrolidine-1-yl)acetamide]
- LD50 [1]: 800 mg/kg
- altitude at which tremor was displayed ([2]; 300 mg/kg): 11 thousand meters
- altitude at which tremor was observed ([2]; 50 and 100 mg/kg (control 7,000 m)): 10,000 m
- Duration of life of animals ([2]; ascension to 11000 m, 50 mg/kg): 6.9 ± 0.7 min
- Duration of life of animals ([2]; ascension to 11000 m, 100 mg/kg): 6.9 ± 0.7 min
- Duration of life of animals ([2]; ascension to 12000 m, 300 mg/kg): 7.3 ± 0.7 min
- tremor during stay at 11,000 meters for 2 hours ([2]; control 11 episodes): tremor was observed only once
- prevention of lethal outcomes, % of cases ([3]; hemorrhagic and ischemic stroke in rats, follow up 14 days): 100%
- % of animals with circling movements [3, 12]: 0* %
- % of animals with lethargy, slowness of movement [3, 12]: 30%
- % of animals with paralysis of 1-4 limbs [3, 12]: 0* %
- % of animals with paresis of 1-4 limbs [3, 12]: 20* %
- % of animals with weakness of limbs [3, 12]: 30* %
- Mortality [3, 12]: 0* %
- shortening of inflammation vs control ([4]; topical 100 mg/kg before formalin): 64.5%
- Effect on formalin edema vs control (100) ([4]; topical 100 mg/kg, 2 hours before formalin): −79.9%
- reduction of amount of intakes for three minutes [5]: 74.4%
- reduction of anxiety and emotional stress in the conflict situation vs control [5]: 291.0%
- Number of water intakes for 3 min ([5]; mice): 7.3 ± 3.9
- The time between the first and second intake of water ([5]; mice): 31.1 ± 3.4 s
- decrease in density of NMDA receptors vs scopolamine amnesia [6, 13]: 12%
- Bmax change vs saline CRPA control [6, 14]: +69%
- Bmax change vs scopolamine amnesia group [6, 14]: −12%
- Kd change vs saline CRPA control [6, 14]: +18.4%
- Kd change vs scopolamine amnesia group [6, 14]: +9.0%
- Bmax change vs saline CRPA control [7]: +4%
- Kd change vs saline CRPA control [7]: −3.8%
- Kd change vs scopolamine amnesia group [7]: +9.3%
- decrease in density of nACh receptors vs scopolamine amnesia [8, 13]: 46%
- Bmax change vs saline CRPA control [8, 15]: +6%
- Bmax change vs scopolamine amnesia group [8, 15]: −46%
- Kd change vs saline CRPA control [8, 15]: +39.5%
- Kd change vs scopolamine amnesia group [8, 15]: +14.4%
- Bmax, percentage relative to control ([9]; 5-HT2, subchronic 100 mg/kg/day, no pathology): −18%*
- Bmax change vs saline CRPA control [9, 16]: +31%
- Kd change vs saline CRPA control [9, 16]: +19.4%
- Kd change vs scopolamine amnesia group [9, 16]: +3.0%
- decrease of density (Bmax) of 5-HT2 receptors vs control ([9]; subchronic 100 mg/kg, no pathology): 18%
- ulcer number vs control (100) ([10]; 25 mg/kg + 5.0% glucose solution, 25 mg/kg): −45% and −42 * %
- ulcer number vs control (100) ([10]; 50 mg/kg + 5.0% glucose solution, 50 mg/kg): −63% and −63 * %
- ulcer number vs control (100) ([10]; 100 mg/kg + 5.0% glucose solution, 100 mg/kg): −80% and −80 * %
- patients restored, amenorrhea of unknown nature [11]: 30.0%
- patients restored, amenorrhea on antipsychotic therapy [11]: 40.0%
- patients with restored menstruations and menstrual cycle ([11]; n=10): 70%
